Measurements: patent US11208387B2, “Macrocyclic broad spectrum antibiotics” (Genentech, Inc., priority 2019, dated 2021)
pIC50: −log10 of the molar value. In brackets after ≈: the same amount, converted by molar mass. Where two headings read alike, the source gives them in different places.

Assays:
[1] = test system: Pseudomonas aeruginosa PA01; assay: Serum MIC, broth micro-dilution; type: cell-based; conditions: Pseudomonas aeruginosa, read-out: P. aeruginosa 01 Serum MIC
Method in brief: (§1)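 Serum-shifted MIC: medium is a 1:1 v/v mix of cation-adjusted MH II broth and mouse serum. 10-point 2-fold dilution series, top 64, 4, 0.5 or 0.13 μg/mL depending on protocol. Inoculum OD600 0.0005 final; 35° C, 22 h.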

[2] = test system: Acinetobacter baumannii ATCC 17978; assay: Serum MIC, broth micro-dilution; type: cell-based; conditions: Acinetobacter baumannii
Method in brief: as §1

[3] = test system: Klebsiella pneumoniae ATCC 700603; assay: Serum MIC, broth micro-dilution; type: cell-based; conditions: Klebsiella pneumoniae, read-out: K pneumoniae 700603 Serum MIC
Method in brief: as §1

[4] = test system: Escherichia coli strain ATCC 25922; assay: Serum MIC, broth micro-dilution; type: cell-based; conditions: Escherichia coli, read-out: E. coli 25922 Serum MIC
Method in brief: as §1

[5] = test system: isolated liver mitochondria; assay: Mitochondrial oxygen consumption rate (OCR) assay; type: biochemical, Sprague-Dawley rats; conditions: isolated rat liver mitochondria, state 3 (S3) respiration, glutamate/malate; Table 3
Method in brief: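 Liver mitochondria from male Sprague-Dawley rats preincubated with compounds 1 h on ice (1% DMSO, pH 7.4 buffer), then given glutamate/malate with TTFA (plus ADP for state 3) and phosphorescent O2 probe. Oxygen consumption read 30 min at 30 °C. IC50 (50 μg protein, S3) or UC50 (100 μg, S2) derived from AUC.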

[6] = PA01, 50% v/v mouse serum in Mueller Hinton II cation adjusted Broth, 35° C., 22 hours, Table 4
[7] = ATCC17978, 50% v/v mouse serum in Mueller Hinton II cation adjusted Broth, 35° C., 22 hours, Table 4, read-out: A. baumanii 17978 Serum MIC
[8] = ATCC17978, 50% v/v mouse serum in Mueller Hinton II cation adjusted Broth, 35° C., 22 hours, Table 5, read-out: Acinetobacter baumanii 17978 Serum MIC
[9] = ATCC700603, 50% v/v mouse serum in Mueller Hinton II cation adjusted Broth, 35° C., 22 hours, Table 4
[10] = ATCC25922, 50% v/v mouse serum in Mueller Hinton II cation adjusted Broth, 35° C., 22 hours, Table 4

Row | pIC50 [5] | MIC [1, 6] | MIC [2, 7] | MIC [2, 8] | MIC [3, 9] | MIC [4, 10] | SMILES | MIC ([1]; PA01, 22 h) | MIC ([2]; ATCC17978, 22 h, read-out: A. baumanii 17978 Serum MIC) | MIC ([2]; ATCC17978, 22 h, read-out: Acinetobacter baumanii 17978 Serum MIC) | MIC ([3]; ATCC700603, 22 h) | MIC ([4]; ATCC25922, 22 h)
1 | 4.32 | 4 µM (≈ 4.14 µg/mL) | 16 µM (≈ 16.6 µg/mL) | 16 µM (≈ 16.6 µg/mL) | 1 µM (≈ 1.04 µg/mL) | 0.5 µM (≈ 0.518 µg/mL) | Cc1nc(-c2ccc3c(c2O)CCC3(C)C)nc(N)c1C(=O)N[C@@H](CNS(N)(=O)=O)C(=O)N(C)[C@@H]1C(=O)N[C@@H](C)C(=O)N[C@H](C(=O)O)Cc2ccc(OC[C@H](O)CN)c(c2)-c2cc1cc(OC[C@H](O)CN)c2O [Example 70, (8S,11S,14S)-18-hydroxy-11-methyl-14-[methyl-[(2S)-2-[[4-amino-2-(4-hydroxy-1,1-dimethyl-indan-5-yl)-6-methyl-pyrimidine-5-carbonyl]-amino]-3-(sulfamoyl-amino)propanoyl]-amino]-10,13-dioxo-3,17-bis[(2R)-3-amino-2-hydroxy-propoxy]-9,12-diazatricyclo-[13.3.1.12,6]icosa-1(18),2(20),3,5,15(19), 16-hexaene-8-carboxylic acid] | – | – | – | – | –
2 | < 3.70 | 8 µM (≈ 8.18 µg/mL) | 14 µM (≈ 14.3 µg/mL) | 14 µM (≈ 14.3 µg/mL) | 0.31 µM (≈ 0.317 µg/mL) | 0.5 µM (≈ 0.511 µg/mL) | Cc1nc(-c2ccc(C(C)(C)C)cc2)nc(CN)c1C(=O)N[C@@H](CNS(N)(=O)=O)C(=O)N(C)[C@@H]1C(=O)N[C@@H](C)C(=O)N[C@H](C(=O)O)Cc2ccc(OC[C@H](O)CN)c(c2)-c2cc1cc(OC[C@H](O)CN)c2O [Example 72, (8S,11S,14S)-3,17-bis[(2R)-3-amino-2-hydroxy-propoxy]-14-[[(2S)-2-[[4-(amino-methyl)-2-(4-tert-butylphenyl)-6-methyl-pyrimidine-5-carbonyl]amino]-3-(sulfamoylamino)-propanoyl]-methyl-amino]-18-hydroxy-11-methyl-10,13-dioxo-9,12-diazatri-cyclo[13.3.1.12,6]icosa-1(18),2(20),3,5,15(19), 16-hexaene-8-carboxylic acid] | – | – | – | – | –

The remaining lines, values behind:

Row | SMILES | pIC50 [5] | MIC [1, 6] | MIC [2, 7] | MIC [2, 8] | MIC [3, 9] | MIC [4, 10] | MIC ([1]; PA01, 22 h) | MIC ([2]; ATCC17978, 22 h, read-out: A. baumanii 17978 Serum MIC) | MIC ([2]; ATCC17978, 22 h, read-out: Acinetobacter baumanii 17978 Serum MIC) | MIC ([3]; ATCC700603, 22 h) | MIC ([4]; ATCC25922, 22 h)
3 | Cc1nc(-c2ccc(OC(C)C)cc2)ncc1C(=O)N[C@@H](CCN)C(=O)N(C)[C@@H]1C(=O)N[C@@H](C)C(=O)N[C@H](C(=O)O)Cc2ccc(OC[C@H](O)CN)c(c2)-c2cc1cc(OC[C@H](O)CN)c2O [Example 20, (8S,11S,14S)-18-hydroxy-11-methyl-14-[methyl-[(2S)-4-amino-2-[[2-(4-isopropoxyphenyl)-4-methyl-pyrimidine-5-carbonyl]amino]-butanoyl]amino]-10,13-dioxo-3,17-bis[(2R)-3-amino-2-hydroxy-propoxy]-9,12-diazatricyclo-[13.3.1.12,6]icosa-1(18),2(20),3,5,15(19), 16-hexaene-8-carboxylic acid] | < 3.60 | – | – | – | – | – | 64 µM (≈ 59.5 µg/mL) | 16 µM (≈ 14.9 µg/mL) | 16 µM (≈ 14.9 µg/mL) | 0.46 µM (≈ 0.428 µg/mL) | 0.58 µM (≈ 0.539 µg/mL)
4 | Cc1nc(-c2ccc(C(C)(C)C)cc2O)nc(N)c1C(=O)N[C@@H](CNS(N)(=O)=O)C(=O)N(C)[C@@H]1C(=O)N[C@@H](C)C(=O)N[C@H](C(=O)O)Cc2ccc(OC[C@H](O)CN)c(c2)-c2cc1cc(OC[C@H](O)CN)c2O [Example 44, (8S,11S,14S)-14-[[(2S)-2-[[4-amino-2-(4-tert-butyl-2-hydroxy-phenyl)-6-methyl-pyrimidine-5-carbonyl]amino]-3-(sulfamoylamino)-propanoyl]-methyl-amino]-3,17-bis[(2R)-3-amino-2-hydroxy-propoxy]-18-hydroxy-11-methyl-10,13-dioxo-9,12-diazatricyclo-[13.3.1.12,6]icosa-1(18),2(20),3,5,15(19), 16-hexaene-8-carboxylic acid] | 4.36 | 4 µM (≈ 4.1 µg/mL) | 8 µM (≈ 8.19 µg/mL) | 8 µM (≈ 8.19 µg/mL) | 0.5 µM (≈ 0.512 µg/mL) | 0.5 µM (≈ 0.512 µg/mL) | – | – | – | – | –
5 | Cc1nc(-c2ccc(C(C)(C)C)cc2O)nc(N)c1C(=O)N[C@@H](CCN)C(=O)N(C)[C@@H]1C(=O)N[C@@H](C)C(=O)N[C@H](C(=O)O)Cc2ccc(OC[C@H](O)CN)c(c2)-c2cc1cc(OC[C@H](O)CN)c2O [Example 43, (8S,11S,14S)-14-[[(2S)-4-amino-2-[[4-amino-2-(4-tert-butyl-2-hydroxy-phenyl)-6-methyl-pyrimidine-5-carbonyl]amino]-butanoyl]-methyl-amino]-3,17-bis[(2R)-3-amino-2-hydroxy-propoxy]-18-hydroxy-11-methyl-10,13-dioxo-9,12-diazatricyclo-[13.3.1.12,6]icosa-1(19),2(20),3,5,15,17-hexaene-8-carboxylic acid] | < 4.00 | 8 µM (≈ 7.67 µg/mL) | 8 µM (≈ 7.67 µg/mL) | 8 µM (≈ 7.67 µg/mL) | 0.25 µM (≈ 0.24 µg/mL) | 0.25 µM (≈ 0.24 µg/mL) | – | – | – | – | –
